Data: ChEMBL document CHEMBL6115028, “An Amazing 30-Year Journey around the DABO Family: A Medicinal Chemistry Lesson on a Versatile Class of Non-nucleoside HIV-1 Reverse Transcriptase Inhibitors” (J Med Chem, 2025)
≈ marks a conversion by molar mass, not a printed value.

Columns and labels:
A-375 [1] = assay: Inhibition of cell proliferation in human A-375 cells assessed as alive cells at 25 uM measured for 96 hrs relative to control; type: functional
A-375 [2] = assay: Inhibition of cell proliferation in human A-375 cells assessed as alive cells at 5 uM measured for 96 hrs relative to control; type: functional
A-375 [3] = assay: Inhibition of cell proliferation in human A-375 cells assessed as alive cells at 10 uM measured for 96 hrs relative to control; type: functional
A-375 [4] = assay: Inhibition of cell proliferation in human A-375 cells assessed as alive cells at 2.5 uM measured for 96 hrs relative to control; type: functional
Micrococcus luteus = assay: Antibacterial activity against Micrococcus luteus ATCC 2188 assessed as reduction in bacterial growth incubated for 24 to 48 hrs by serial dilution method; type: functional; conditions: time 24-48 hrs
Bacillus subtilis = assay: Antibacterial activity against Bacillus subtilis NRRL B-1481 assessed as reduction in bacterial growth incubated for 24 to 48 hrs by serial dilution method; type: functional; conditions: time 24-48 hrs
Staphylococcus aureus = assay: Antibacterial activity against Staphylococcus aureus ATCC 6538 assessed as reduction in bacterial growth incubated for 24 to 48 hrs by serial dilution method; type: functional; conditions: time 24-48 hrs
Escherichia coli = assay: Antibacterial activity against Escherichia coli ATCC 25922 assessed as reduction in bacterial growth incubated for 24 to 48 hrs by serial dilution method; type: functional; conditions: time 24-48 hrs
Pseudomonas aeruginosa = assay: Antibacterial activity against Pseudomonas aeruginosa ATCC 27853 assessed as reduction in bacterial growth incubated for 24 to 48 hrs by serial dilution method; type: functional; conditions: time 24-48 hrs
Influenza A virus [5] = assay: Antiviral activity against Influenza A virus A/H1N1 infected in dog MDCK cells reduction in viral replication incubated for 3 days by MTS assay; type: functional, organism-based; conditions: 72 h
Influenza B virus [6] = assay: Antiviral activity against Influenza B virus infected in dog MDCK cells assessed as reduction in viral replication incubated for 3 days by MTS assay; type: functional, organism-based; conditions: 72 h
Influenza B virus [7] = assay: Antiviral activity against Influenza B virus infected in dog MDCK cells assessed as reduction in cytopathic effect measured after 3 days by CPE assay; type: functional, organism-based; conditions: 72 h
Influenza A virus [8] = assay: Antiviral activity against Influenza A virus A/H2N2 infected in dog MDCK cells reduction in virus induced cytopathic effect measured after 3 days by CPE assay; type: functional, organism-based; conditions: 72 h
Influenza A virus [9] = assay: Antiviral activity against Influenza A virus A/H2N2 infected in dog MDCK cells reduction in viral replication incubated for 3 days by MTS assay; type: functional, organism-based; conditions: 72 h
[10] = Cytotoxicity against dog MDCK cells assessed as reduction in cell viability measured for 3 days by MTT assay; type: toxicity, cell-based, Canis lupus familiaris; conditions: time 3 day
Influenza A virus [11] = assay: Antiviral activity against Influenza A virus A/H1N1 infected in MDCK cells reduction in virus induced cytopathic effect measured after 3 days by CPE assay; type: functional, organism-based; conditions: 72 h
HOP-92 = assay: Growth inhibition of human HOP-92 cells at 10 uM relative to control; type: functional; conditions: read-out: GI
[12] = Cytotoxicity against African green monkey Vero cells assessed as reduction in cell growth measured after 96 hrs by MTT assay; type: toxicity, cell-based; conditions: chlorocebus sabaeus
[13] = Inhibition of Zika virus NS5 RNA-directed RNA polymerase NS5
Zika virus = assay: Antiviral activity against Zika virus infected in Vero cells assessed as reduction in viral DNA replication; type: functional, organism-based
[14] = Inhibition of Hepatitis C virus NS5B RNA dependent RNA polymerase; parameters: species or system Hepacivirus hominis
[15] = Cytotoxicity against African green monkey Vero cells assessed as reduction in cell viability measured after 96 hrs by MTT assay; type: toxicity, cell-based; conditions: chlorocebus sabaeus
A-375 [16] = assay: Inhibition of cell proliferation in human A-375 cells assessed as alive cells at 50 uM measured for 96 hrs relative to control; type: functional
A-375 [17] = assay: Inhibition of cell proliferation in human A-375 cells assessed as alive cells at 100 uM measured for 96 hrs relative to control; type: functional
Huh-7 = assay: Cytotoxicity against human Huh-7 cells assessed as reduction in cell growth; type: functional
Hepatitis C virus = assay: Antiviral activity against Hepatitis C virus infected in human Huh7.5 cells assessed as reduction in viral replication; type: functional, organism-based, Hepacivirus hominis
MOLT-4 = assay: Growth inhibition of human MOLT-4 cells at 10 uM relative to control; type: functional; conditions: read-out: GI

Structure (SMILES): CCC(C)Sc1nc(C(CC)c2c(F)cccc2F)c(C)c(=O)[nH]1 (stereo not drawn)
- inhibition at 25 µM (A-375 [1]): 5%
- inhibition at 5 µM (A-375 [2]): 30%
- inhibition at 10 µM (A-375 [3]): 12%
- inhibition at 2.5 µM (A-375 [4]): 70%

Structure (SMILES): COc1cc(-c2nc(SC)[nH]c(=O)c2C#N)ccc1OCc1ccccc1
- MIC (Micrococcus luteus): 12.5 µM (≈ 4.74 µg/mL)
- MIC (Bacillus subtilis): 6.25 µg/mL (≈ 16.5 µM)
- MIC (Staphylococcus aureus): 12.5 µg/mL (≈ 32.9 µM)
- MIC (Escherichia coli): 12.5 µg/mL (≈ 32.9 µM)
- MIC (Pseudomonas aeruginosa): 12.5 µg/mL (≈ 32.9 µM)

Structure (SMILES): COc1ccc(NC(=O)CSc2nc(Cc3cccc4ccccc34)c(C)c(=O)[nH]2)cc1
- EC50 (Influenza A virus [5]): 9 µM
- EC50 (Influenza B virus [6]): > 22 µM
- EC50 (Influenza B virus [7]): > 45 µM
- EC50 (Influenza A virus [8]): 26 µM
- EC50 (Influenza A virus [9]): 9.7 µM
- CC50 at 72 h [10]: > 224 µM
- EC50 (Influenza A virus [11]): 9 µM

Structure (SMILES): N#Cc1c(-c2c(Cl)cccc2Cl)nc(SCC(=O)c2ccc(Br)cc2)[nH]c1=O
- inhibition of growth at 10 µM (HOP-92): 41%

Structure (SMILES): CCc1c(C2CCCCC2)nc(SCC(=O)Nc2cc(F)cc(F)c2)[nH]c1=O
- CC50 at 96 h [12]: > 200 µM
- IC50 [13]: 11.4 µM
- EC50 (Zika virus): 7.65 µM
- IC50 [14]: 0.102 µM
- CC50 at 96 h [15]: > 10 µM

Structure (SMILES): CCC(C)Sc1nc(C(C)c2c(F)cccc2F)nc(=O)[nH]1 (stereo not drawn)
- inhibition at 50 µM (A-375 [16]): 62%
- inhibition at 100 µM (A-375 [17]): 14%

Structure (SMILES): CCc1c(-c2ccc(C(C)C)cc2)nc(Sc2ccccc2Br)[nH]c1=O
- IC50 [14]: 3.8 µM
- CC50 (Huh-7): > 250 µM
- EC50 (Hepatitis C virus): 32 µM

Structure (SMILES): CCc1ccc(-c2nc(SCC(=O)c3ccc(Br)cc3)[nH]c(=O)c2C#N)s1
- inhibition of growth at 10 µM (MOLT-4): 42.4%
